*1 amine or outer side, *2 acyl side, *3 side chain or, on linkers, in order; H or OH if unused. Where a SMILES comes first, the peptide text is derived from it. Bridges are numbered along the chain shown (N, C = ends). Side-chain parts run from the residue outwards. [ ]: non-standard residue; d: D form. The star is where a group is joined. X3 = O=C([C@@H](Cc1ccc(NCCN2CCOCC2)cc1)N[*:1])[*:2]; dPhe(4-CONH2) = NC(=O)c1ccc(C[C@@H](N)C(=O)O)cc1; dPhe(4-CH2NH2) = NCc1ccc(C[C@@H](N)C(=O)O)cc1; NMePhe(4-Cl) = CN[C@@H](Cc1ccc(Cl)cc1)C(=O)O; dPhe(4-NH2) = Nc1ccc(C[C@@H](N)C(=O)O)cc1; Phe(4-Cl) = N[C@@H](Cc1ccc(Cl)cc1)C(=O)O; d(hCit) = NC(=O)NCCCC[C@@H](N)C(=O)O; Ethyl(2-morpholino) = C1CN(CC*)CCO1; NMeY = CN[C@@H](Cc1ccc(O)cc1)C(=O)O; dNMeY = CN[C@H](Cc1ccc(O)cc1)C(=O)O; NMeT = CN[C@H](C(=O)O)[C@@H](C)O; Nicotinoyl = O=C(c1cccnc1)*; dNMeC = CN[C@H](CS)C(=O)O Bounds are passed on as bounds.

Assay [1] concerns the target SSTR3 (Homo sapiens, UniProt P32745). The experiment in a line: PathHunter β-Arrestin assay, antagonist mode, SSTR3. In kind it is cell-based. To be noted: agonist challenge at EC80. Here is the method:
The PathHunter® β-Arrestin assay monitors the activation of a GPCR in a homogenous, non-imaging assay format using a technology developed by DiscoveRx called Enzyme Fragment Complementation (EFC) with β-galactosidase (β-Gal) as the functional reporter. […] EA is fused to β-Arrestin and […] is fused to the GPCR of interest. When the GPCR is activated and β-Arrestin is recruited to the receptor, ED and EA complementation occurs, restoring β-Gal activity which is measured using chemiluminescent PathHunter® Detection Reagents. For antagonist determination, cells were pre-incubated with the compounds followed by agonist challenge at the EC80 concentration. Data was normalized to the maximal and minimal response observed in the presence of EC80 ligand and vehicle. Compound activity was analyzed using CBIS data analysis suite ChemInnovation, CA). Percentage inhibition was calculated using the following formula: % Inhibition=100%×(1−(mean signal of test sample-mean signal of vehicle control)/(mean signal of EC80 control-mean signal of vehicle control)). Percentage inhibition was calculated at 10 concentrations in steps on a Log 3 scale ranging from […] to 5e-5 μM. The results were plotted for IC50 calculation.

In assay [2] the target is somatostatin type 2 (SSTR2) receptors (Homo sapiens, UniProt P30874). The experiment in a line: PathHunter β-Arrestin assay, antagonist mode, SSTR2. The assay is classed as cell-based. To be noted: agonist challenge at EC80. In a few lines: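 Cells co-expressing PK-tagged human receptor and EA-β-Arrestin were pre-incubated with compound, then challenged with agonist at EC80. β-Gal complementation read by chemiluminescence; % inhibition normalized to EC80 and vehicle controls at 10 concentrations (log 3 steps from 1 μM down to 5e-5 μM), fitted for IC50.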
Sequence of somatostatin type 2 (SSTR2) receptors (P30874 whole entry): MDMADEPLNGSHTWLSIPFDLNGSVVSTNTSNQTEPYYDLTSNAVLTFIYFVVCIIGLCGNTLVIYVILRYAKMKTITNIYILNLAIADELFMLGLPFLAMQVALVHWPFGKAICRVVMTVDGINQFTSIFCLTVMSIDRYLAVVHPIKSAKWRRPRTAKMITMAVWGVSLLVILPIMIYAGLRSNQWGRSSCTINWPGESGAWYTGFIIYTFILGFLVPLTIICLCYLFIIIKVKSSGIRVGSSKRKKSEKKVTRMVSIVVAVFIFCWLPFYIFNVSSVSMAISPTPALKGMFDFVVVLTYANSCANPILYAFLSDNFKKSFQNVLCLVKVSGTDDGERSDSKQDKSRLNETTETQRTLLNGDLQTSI

Sequence of SSTR3 (P32745 whole entry, the tested form may be a part): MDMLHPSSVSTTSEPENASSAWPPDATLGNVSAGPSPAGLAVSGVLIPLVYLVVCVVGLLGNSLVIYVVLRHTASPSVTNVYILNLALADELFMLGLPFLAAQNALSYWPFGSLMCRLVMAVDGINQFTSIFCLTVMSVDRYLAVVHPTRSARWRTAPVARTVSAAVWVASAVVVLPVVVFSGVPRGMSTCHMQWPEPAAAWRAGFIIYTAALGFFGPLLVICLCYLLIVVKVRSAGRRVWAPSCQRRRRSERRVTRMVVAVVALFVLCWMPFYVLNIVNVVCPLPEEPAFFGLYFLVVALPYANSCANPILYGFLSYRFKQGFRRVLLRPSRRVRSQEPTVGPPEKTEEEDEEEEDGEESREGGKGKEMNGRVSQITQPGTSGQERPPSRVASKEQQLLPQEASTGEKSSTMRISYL

The term IC50 denotes the concentration at which inhibition is half-maximal. On to `C[C@@H](O)[C@@H]1NC(=O)[C@H](CCCCN)NC(=O)[C@@H](CCCCNC(N)=O)NC(=O)[C@H](Cc2ccc(O)cc2)NC(=O)[C@H](NC(=O)[C@@H](N)Cc2ccc(Cl)cc2)CSSC[C@@H](C(=O)N[C@H](Cc2ccc(O)cc2)C(N)=O)NC1=O` [Compound 2, H-Cpa-cyclo[DCys- Tyr-DHoCit-Lys- Thr-Cys]- DTyr-NH2] (H-[Phe(4-Cl)][dC]Y[d(hCit)]KTC[dY]-NH2; disulfide 2-7), for which the IC50 in assay [1] is greater than 1000 nM; in assay [2], 181 nM.
For `C[C@@H](O)[C@@H]1NC(=O)[C@H](CCCCN)NC(=O)[C@@H](CCCCNC(=O)c2cccnc2)NC(=O)[C@H](Cc2ccc(O)cc2)NC(=O)[C@H](NC(=O)[C@@H](N)Cc2ccc(Cl)cc2)CSSC[C@@H](C(=O)N[C@H](Cc2ccc(O)cc2)C(N)=O)NC1=O` [Compound 3, H-Cpa-cyclo[DCys- Tyr-D-(N^ϵ- nicotinoyl)Lys-Lys- Thr-Cys]-DTyr-NH2] (H-[Phe(4-Cl)][dC]Y[dK](Nicotinoyl)KTC[dY]-NH2; disulfide 2-7), in that order: greater than 1000 nM and 251 nM.
For `C[C@@H](O)[C@@H]1NC(=O)[C@H](CCCCN)NC(=O)[C@@H](Cc2ccc(CN)cc2)NC(=O)[C@H](Cc2ccc(O)cc2)NC(=O)[C@H](NC(=O)[C@@H](N)Cc2ccc(Cl)cc2)CSSC[C@@H](C(=O)N[C@H](Cc2ccc(O)cc2)C(N)=O)NC1=O` [Compound 5, H-Cpa-cyclo[DCys- Tyr-D-(4-aminomethyl)Phe- Lys-Thr-Cys]- DTyr-NH2] (H-[Phe(4-Cl)][dC]Y[dPhe(4-CH2NH2)]KTC[dY]-NH2; disulfide 2-7), in that order: greater than 1000 nM and 213 nM.
In the case of `CC(=O)NCc1ccc(C[C@H]2NC(=O)[C@H](Cc3ccc(O)cc3)NC(=O)[C@H](NC(=O)[C@@H](N)Cc3ccc(Cl)cc3)CSSC[C@@H](C(=O)N[C@H](Cc3ccc(O)cc3)C(N)=O)NC(=O)[C@H]([C@@H](C)O)NC(=O)[C@H](CCCCN)NC2=O)cc1` [Compound 6, H-Cpa-cyclo[DCys- Tyr-D-(4- acetamido- methyl)Phe- Lys-Thr-Cys]-DTyr- NH2] (H-[Phe(4-Cl)][dC]Y[dPhe(4-CH2NH2)](Ac)KTC[dY]-NH2; disulfide 2-7), the IC50 was greater than 1000 nM in assay [1] and 166 nM in assay [2].
For `C[C@@H](O)[C@@H]1NC(=O)[C@H](CCCCN)NC(=O)[C@@H](Cc2ccc(NC(=O)CN)cc2)NC(=O)[C@H](Cc2ccc(O)cc2)NC(=O)[C@H](NC(=O)[C@@H](N)Cc2ccc(Cl)cc2)CSSC[C@@H](C(=O)N[C@H](Cc2ccc(O)cc2)C(N)=O)NC1=O` [Compound 8, H-Cpa-cyclo[DCys- Tyr-D-4-(Gly) Aph-Lys- Thr-Cys]-DTyr-NH2] (H-[Phe(4-Cl)][dC]Y[dPhe(4-NH2)](Gly)KTC[dY]-NH2; disulfide 2-7), the IC50 in assay [1] was greater than 1000 nM; in assay [2], 84 nM.
As for `CC(=O)NCC(=O)Nc1ccc(C[C@H]2NC(=O)[C@H](Cc3ccc(O)cc3)NC(=O)[C@H](NC(=O)[C@@H](N)Cc3ccc(Cl)cc3)CSSC[C@@H](C(=O)N[C@H](Cc3ccc(O)cc3)C(N)=O)NC(=O)[C@H]([C@@H](C)O)NC(=O)[C@H](CCCCN)NC2=O)cc1` [Compound 9, H-Cpa-cyclo[DCys- Tyr-D-4-(Gly- Ac)Aph- Lys-Thr-Cys]- DTyr-NH2] (H-[Phe(4-Cl)][dC]Y[dPhe(4-NH2)]([Gly-Ac])KTC[dY]-NH2; disulfide 2-7), the figures for the IC50 in assay [1] and in assay [2] were greater than 1000 nM and 104 nM, respectively.
For `C[C@@H](O)[C@@H]1NC(=O)[C@H](CCCCN)NC(=O)[C@@H](Cc2ccc(NC(=O)[C@@H]3CCCN3)cc2)NC(=O)[C@H](Cc2ccc(O)cc2)NC(=O)[C@H](NC(=O)[C@@H](N)Cc2ccc(Cl)cc2)CSSC[C@@H](C(=O)N[C@H](Cc2ccc(O)cc2)C(N)=O)NC1=O` [Compound 10, H-Cpa-cyclo[DCys- Tyr-D-4-(Pro) Aph-Lys- Thr-Cys]- DTyr-NH2] (H-[Phe(4-Cl)][dC]Y[dPhe(4-NH2)](Pro)KTC[dY]-NH2; disulfide 2-7) the same measures were greater than 1000 nM and greater than 1000 nM.
For `C[C@@H](O)[C@@H]1NC(=O)[C@H](CCCCN)NC(=O)[C@@H](Cc2ccc(NCCN3CCOCC3)cc2)NC(=O)[C@H](Cc2ccc(O)cc2)NC(=O)[C@H](NC(=O)[C@@H](N)Cc2ccc(Cl)cc2)CSSC[C@@H](C(=O)N[C@H](Cc2ccc(O)cc2)C(N)=O)NC1=O` [Compound 11, H-Cpa-cyclo [DCys-Tyr- D-4-(2-(4- morpholinyl) ethyl)Aph- Lys-Thr-Cys]- DTyr-NH2] (H-[Phe(4-Cl)][dC]Y[X3]KTC[dY]-NH2; disulfide 2-7), in that order: greater than 1000 nM and 243 nM.
For `C[C@@H](O)[C@@H]1NC(=O)[C@H](CCCCN)NC(=O)[C@@H](Cc2ccc(OCCN3CCOCC3)cc2)NC(=O)[C@H](Cc2ccc(O)cc2)NC(=O)[C@H](NC(=O)[C@@H](N)Cc2ccc(Cl)cc2)CSSC[C@@H](C(=O)N[C@H](Cc2ccc(O)cc2)C(N)=O)NC1=O` [Compound 13, H-Cpa-cyclo[DCys- Tyr-D-(2-(4- morpholinyl)ethyl) Tyr-Lys-Thr- Cys]-DTyr-NH2] (H-[Phe(4-Cl)][dC]Y[dY](Ethyl(2-morpholino))KTC[dY]-NH2; disulfide 2-7), in that order: greater than 1000 nM and 334 nM.
For the compound `C[C@@H](O)[C@@H]1NC(=O)[C@H](CCCCN)NC(=O)[C@@H](Cc2ccc(NC(=O)[C@@H](N)CO)cc2)NC(=O)[C@H](Cc2ccc(O)cc2)NC(=O)[C@H](NC(=O)[C@@H](N)Cc2ccc(Cl)cc2)CSSC[C@@H](C(=O)N[C@H](Cc2ccc(O)cc2)C(N)=O)NC1=O` [Compound 16, H-Cpa-cyclo[DCys- Tyr-D-4-(Ser) Aph-Lys-Thr- Cys]-DTyr-NH2] (H-[Phe(4-Cl)][dC]Y[dPhe(4-NH2)](Ser)KTC[dY]-NH2; disulfide 2-7), the results for the IC50 in assay [1] and in assay [2] were greater than 1000 nM and 234 nM, respectively.
For `C[C@@H](O)[C@@H]1NC(=O)[C@H](CCCCN)NC(=O)[C@@H](Cc2ccc(NC(=O)[C@@H](N)CCCCN)cc2)NC(=O)[C@H](Cc2ccc(O)cc2)NC(=O)[C@H](NC(=O)[C@@H](N)Cc2ccc(Cl)cc2)CSSC[C@@H](C(=O)N[C@H](Cc2ccc(O)cc2)C(N)=O)NC1=O` [Compound 17, H-Cpa-cyclo[DCys- Tyr-D-4-(Lys) Aph-Lys-Thr- Cys]-DTyr-NH2] (H-[Phe(4-Cl)][dC]Y[dPhe(4-NH2)](Lys)KTC[dY]-NH2; disulfide 2-7), in that order: greater than 1000 nM and greater than 1000 nM.
As for `C[C@@H](O)[C@@H]1NC(=O)[C@H](CCCCN)NC(=O)[C@@H](Cc2ccc(NC(=O)[C@@H](N)CC(=O)O)cc2)NC(=O)[C@H](Cc2ccc(O)cc2)NC(=O)[C@H](NC(=O)[C@@H](N)Cc2ccc(Cl)cc2)CSSC[C@@H](C(=O)N[C@H](Cc2ccc(O)cc2)C(N)=O)NC1=O` [Compound 18, H-Cpa-cyclo[DCys- Tyr-D-4-(Asp) Aph-Lys-Thr- Cys]-DTyr-NH2] (H-[Phe(4-Cl)][dC]Y[dPhe(4-NH2)](Asp)KTC[dY]-NH2; disulfide 2-7), the IC50 in assay [1] and in assay [2] was greater than 1000 nM throughout.
In assay [2], `CN[C@@H](Cc1ccc(Cl)cc1)C(=O)N[C@@H]1CSSC[C@@H](C(=O)N[C@H](Cc2ccc(O)cc2)C(N)=O)NC(=O)[C@H]([C@@H](C)O)NC(=O)[C@H](CCCCN)NC(=O)[C@@H](Cc2ccc(C(N)=O)cc2)NC(=O)[C@H](Cc2ccc(O)cc2)NC1=O` [Compound 77, H—(N-Me)Cpa-cyclo[D-Cys-Tyr-D-Phe(4-carbamoyl)-Lys-Thr-Cys]-D-Tyr-NH2] (H-[NMePhe(4-Cl)][dC]Y[dPhe(4-CONH2)]KTC[dY]-NH2; disulfide 2-7) gave an IC50 of 2.25 nM.
The same measure, in the same setting: in the case of `C[C@@H](O)[C@@H]1NC(=O)[C@H](CCCCN)NC(=O)[C@@H](Cc2ccc(C(N)=O)cc2)NC(=O)[C@H](Cc2ccc(O)cc2)NC(=O)[C@H](N(C)C(=O)[C@@H](N)Cc2ccc(Cl)cc2)CSSC[C@@H](C(=O)N[C@H](Cc2ccc(O)cc2)C(N)=O)NC1=O` [Compound 78, H-Cpa- [NMeDCys- Tyr-DPhe (4-carbamoyl)- Lys-Thr-Cys]- DTyr-NH2] (H-[Phe(4-Cl)][dNMeC]Y[dPhe(4-CONH2)]KTC[dY]-NH2; disulfide 2-7) it was 6.79 nM; in that of `C[C@@H](O)[C@@H]1NC(=O)[C@H](CCCCN)NC(=O)[C@@H](Cc2ccc(C(N)=O)cc2)NC(=O)[C@H](Cc2ccc(O)cc2)NC(=O)[C@H](NC(=O)[C@@H](N)Cc2ccc(Cl)cc2)CSSC[C@@H](C(=O)N(C)[C@H](Cc2ccc(O)cc2)C(N)=O)NC1=O` [Compound 79, H-Cpa-[DCys- Tyr-DPhe(4- carbamoyl)-Lys- Thr-Cys]- NMeDTyr-NH2] (H-[Phe(4-Cl)][dC]Y[dPhe(4-CONH2)]KTC[dNMeY]-NH2; disulfide 2-7), 28.7 nM; in that of `CN[C@@H](Cc1ccc(Cl)cc1)C(=O)N[C@@H]1CSSC[C@@H](C(=O)N(C)[C@H](Cc2ccc(O)cc2)C(N)=O)NC(=O)[C@H]([C@@H](C)O)N(C)C(=O)[C@H](CCCCN)NC(=O)[C@@H](Cc2ccc(C(N)=O)cc2)NC(=O)[C@H](Cc2ccc(O)cc2)N(C)C1=O` [Compound 80, H-NMeCpa-[DCys-NMeTyr-DPhe(4-carbamoyl)-Lys-NMeThr-Cys]-NMeTyr-NH2] (H-[NMePhe(4-Cl)][dC][NMeY][dPhe(4-CONH2)]K[NMeT]C[dNMeY]-NH2; disulfide 2-7), greater than 1000 nM.
